Results: the supplement of paper PMC10290057
Structures can show the parent of a compound that is named as a salt.

How the values were obtained:
[1] = test system: HCT116; test: AC50 cell viability (CellTiter-Glo); higher = less potent; conditions: 48 h
[2] = test system: HCT116; test: efficacy (fitted maximal change in viability relative to DMSO control); higher = less cytotoxic (negative = loss of viability); conditions: 48 h
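For AC50 cell viability (CellTiter-Glo) in this document: HCT116 colorectal carcinoma cells screened at five concentrations per compound, luminescent viability scaled between DMSO wells and empty wells on each plate, curves fitted per compound.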
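For efficacy (fitted maximal change in viability relative to DMSO control) in this document: Luminescence-based viability readout, five doses per compound, normalized against on-plate DMSO and empty-well controls, followed by dose-response curve fitting for every drug.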

## CC(C)C[C@H](NC(=O)[C@@H](NC(=O)c1cccc(-c2ccccc2)n1)[C@@H](C)O)B(O)O [Delanzomib]
[1]
  AC50 cell viability: 0.0362 µM
[2]
  efficacy: -84.8%

## c1ccc(Cn2c(-c3ccc(OCC(C4CCNCC4)n4c(-c5ccccc5)nc5ccccc54)cc3)nc3ccccc32)cc1 (configuration not stated) [Deltarasin]
[1]
  AC50 cell viability: 9.34 µM
[2]
  efficacy: -89.7%

## CN[C@H]1CCC2=CC(=C(OC)C(=C2C/3=C/C=C(OC)\C(=O)/C=C13)OC)OC [Demecolcine]
[1]
  AC50 cell viability: 0.059 µM
[2]
  efficacy: -62.6%

## COCCNCCc1cccc(Nc2ncc3c(n2)-c2ccccc2[C@H](c2ccccc2F)C3)c1 [Derazantinib]
[1]
  AC50 cell viability: 10.5 µM
[2]
  efficacy: -95.8%

## CCCCCCC(C)(C)C1=CC2=C([C@H]3CC(=C/CC3C(C)(C)O2)\CO)C(=C1)O (some centres not stated) [Dexanabinol]
[1]
  AC50 cell viability: 8.33 µM
[2]
  efficacy: -93.9%

## ClC1=CC=C(C=C1)C(C#N)C2=C(Cl)C=C(C=C2Cl)N3\N=C/C(=O)NC3=O (configuration not stated) [Diclazuril]
[1]
  AC50 cell viability: 23.5 µM
[2]
  efficacy: -56%

## CC/C(=C(/CC)c1ccc(O)cc1)c1ccc(O)cc1 [Diethylstilbestrol]
[1]
  AC50 cell viability: 18.6 µM
[2]
  efficacy: -47.2%

## C[C@H]1O[C@H](C[C@H](O)[C@@H]1O)O[C@H]2[C@@H](O)C[C@@H](O[C@@H]2C)O[C@H]3[C@@H](O)C[C@@H](O[C@@H]3C)O[C@H]4CC[C@@]5(C)[C@H](CC[C@@H]6[C@@H]5C[C@@H](O)[C@]7(C)[C@H](CC[C@]67O)C/8=C/C(=O)OC8)C4 [Digoxin]
[1]
  AC50 cell viability: 0.0525 µM
[2]
  efficacy: -80.9%

## C[C@@H]1CC[C@@]2(OC1)O[C@H]3C[C@H]4[C@@H]5C/C=C6/C[C@H](CC[C@]6(C)[C@H]5CC[C@]4(C)[C@H]3[C@@H]2C)O[C@@H]7O[C@H](CO)[C@@H](O[C@@H]8O[C@@H](C)[C@H](O)[C@@H](O)[C@H]8O)[C@H](O)[C@H]7O[C@@H]9O[C@@H](C)[C@H](O)[C@@H](O)[C@H]9O [Dioscin]
[1]
  AC50 cell viability: 5.25 µM
[2]
  efficacy: -101%

## CCN(CC)C(=S)SSC(=S)N(CC)CC [Disulfiram]
[1]
  AC50 cell viability: 16.6 µM
[2]
  efficacy: -101%

## O=C(C(c1ccccc1)c1ccccc1)N1CCN(CC(O)COc2cccc3ncccc23)CC1 (configuration not stated) [Dofequidar]
[1]
  AC50 cell viability: 18.6 µM
[2]
  efficacy: -50.3%

## O=c1[nH]c2ccccc2n1CCCN1CCC(n2c(=O)[nH]c3cc(Cl)ccc32)CC1 [Domperidone]
[1]
  AC50 cell viability: 18.6 µM
[2]
  efficacy: -68%

## Cc1ccc(-n2nc(C(C)(C)C)cc2NC(=O)Nc2ccc(OCCN3CCOCC3)c3ccccc23)cc1 [Doramapimod]
[1]
  AC50 cell viability: 20.9 µM
[2]
  efficacy: -76.9%

## c1cc(-c2cnn3cc(-c4ccc(OCCN5CCCCC5)cc4)cnc23)ccn1 [Dorsomorphin]
[1]
  AC50 cell viability: 4.68 µM
[2]
  efficacy: -82.7%

## CN1CCN(CC1)C2=CC3=C([NH]C(=N3)C/4=C(\N)C5=C(F)C=CC=C5NC4=O)C=C2 [Dovitinib]
[1]
  AC50 cell viability: 8.33 µM
[2]
  efficacy: -106%

## C=C1/C(=C\C=C2/CCC[C@]3(C)[C@@H]([C@H](C)/C=C/[C@H](C)C(C)C)CC[C@@H]23)C[C@@H](O)C[C@@H]1O [Doxercalciferol]
[1]
  AC50 cell viability: 23.5 µM
[2]
  efficacy: -85.4%

## C[C@H]1O[C@H]([C@H](O)[C@@H]1O)N2\C=C(F)/C(=O)NC2=O [Doxifluridine]
[1]
  AC50 cell viability: 7.42 µM
[2]
  efficacy: -68.1%

## COc1cccc2c1C(=O)c1c(O)c3c(c(O)c1C2=O)C[C@@](O)(C(=O)CO)C[C@@H]3O[C@H]1C[C@H](N)[C@H](O)[C@H](C)O1 [Doxorubicin]
[1]
  AC50 cell viability: 0.372 µM
[2]
  efficacy: -75.3%

## CCCCc1oc2ccc(N[S+](C)(=O)[O-])cc2c1C(=O)c1ccc(OCCCN(CCCC)CCCC)cc1 [Dronedarone hydrochloride]
[1]
  AC50 cell viability: 8.33 µM
[2]
  efficacy: -102%

## Cc1cc(Cl)ccc1OCCCC(=O)NO [Droxinostat]
[1]
  AC50 cell viability: 20.9 µM
[2]
  efficacy: -57.1%

## C[C@H](NC1=C2N=C[NH]C2=NC=N1)C/3=C/C4=C(C(=CC=C4)Cl)C(=O)N3C5=CC=CC=C5 [Duvelisib]
[1]
  AC50 cell viability: 18.6 µM
[2]
  efficacy: -72%
